Data published in ChEMBL document CHEMBL3792299, “Novel tricyclics (e.g., GSK945237) as potent inhibitors of bacterial type IIA topoisomerases” (Bioorg Med Chem Lett, 2016).
Values after ≈ are worked out from the molar mass of the structure shown. Active and inactive are the calls of the source. The rule behind the calls is not given here.

Tests used:
Haemophilus influenzae = assay: Antibacterial activity against Haemophilus influenzae H128 after 18 to 24 hrs by broth microdilution method; format: functional
Streptococcus pneumoniae [1] = assay: Antibacterial activity against quinolone-resistant Streptococcus pneumoniae TPS3 after 18 to 24 hrs by broth microdilution method; format: functional
Staphylococcus aureus = assay: Antibacterial activity against Staphylococcus aureus WCUH 29 after 18 to 24 hrs by broth microdilution method; format: functional
[2] = Inhibition of Haemophilus influenzae DNA gyrase-dependent DNA replication by scintillation proximity assay
[3] = Cmax in Sprague-Dawley rat at 5 mg/kg, po administered as single dose by LC/MS/MS analysis; format: ADME, organism-based; parameters: dose 5 mg/kg, route oral; conditions: in vivo
Canis familiaris [4] = assay: AUC in Beagle dog at 5 mg/kg, po administered as single dose by LC/MS/MS analysis; format: ADME, organism-based, Canis lupus familiaris; conditions: in vivo
[5] = Volume of distribution at steady state in Sprague-Dawley rat at 3 mg/kg, iv administered as single dose by LC/MS/MS analysis; format: ADME, organism-based; conditions: in vivo, read-out: Vdss
Cynomolgus monkey [6] = assay: Blood clearance in cynomolgus monkey at 3 mg/kg, iv administered as single dose by LC/MS/MS analysis relative to hepatic blood flow; format: ADME, organism-based, Macaca fascicularis, Liver; conditions: in vivo
Rattus norvegicus [7] = assay: AUC in Sprague-Dawley rat at 100 mg/kg, po bid by LC/MS/MS analysis; format: ADME, organism-based; conditions: in vivo
[8] = Volume of distribution at steady state in Beagle dog at 3 mg/kg, iv administered as single dose by LC/MS/MS analysis; format: ADME, organism-based, Canis lupus familiaris; conditions: in vivo, read-out: Vdss
Liver microsome [9] = assay: Intrinsic clearance in Sprague-Dawley rat liver microsomes assessed per gram of liver at 0.5 uM by LC/MS/MS analysis; format: ADME
[10] = Plasma protein binding in cynomolgus monkey at 0.5 to 5 ug/ml by equilibrium dialysis method; format: ADME, cell-free, Macaca fascicularis; conditions: read-out: PPB (converted)
Cynomolgus monkey [11] = assay: AUC in cynomolgus monkey at 5 mg/kg, po administered as single dose by LC/MS/MS analysis; format: ADME, organism-based, Macaca fascicularis; conditions: in vivo
[12] = Terminal half life in cynomolgus monkey at 3 mg/kg, iv administered as single dose by LC/MS/MS analysis; format: ADME, organism-based, Macaca fascicularis; conditions: in vivo, read-out: beta t1/2 (converted)
Rattus norvegicus [13] = assay: Blood clearance in Sprague-Dawley rat at 3 mg/kg, iv administered as single dose by LC/MS/MS analysis relative to hepatic blood flow; format: ADME, organism-based, Liver; conditions: in vivo
[14] = Cmax in Beagle dog at 5 mg/kg, po administered as single dose by LC/MS/MS analysis; format: ADME, organism-based, Canis lupus familiaris; parameters: dose 5 mg/kg, route oral; conditions: in vivo
Rattus norvegicus [15] = assay: AUC in Sprague-Dawley rat at 5 mg/kg, po administered as single dose by LC/MS/MS analysis; format: ADME, organism-based; conditions: in vivo
Cynomolgus monkey [16] = assay: Renal clearance in cynomolgus monkey at 3 mg/kg, iv administered as single dose by LC/MS/MS analysis relative to total clearance; format: ADME, organism-based, Macaca fascicularis, Kidney; conditions: in vivo
Rattus norvegicus [17] = assay: Oral bioavailability in Sprague-Dawley rat at 5 mg/kg administered as single dose by LC/MS/MS analysis; format: ADME, organism-based; conditions: in vivo
Streptococcus pneumoniae [18] = assay: Antibacterial activity against quinolone-resistant Streptococcus pneumoniae TPS3 in rat respiratory tract infection model assessed as decrease in bacterial burden in lung at 100 mg/kg, po bid administered through gavage at 1, 7, 24,31 hrs post infection measured after 48 hrs; format: functional, organism-based
[19] = Terminal half life in Beagle dog at 3 mg/kg, iv administered as single dose by LC/MS/MS analysis; format: ADME, organism-based, Canis lupus familiaris; conditions: in vivo, read-out: beta t1/2 (converted)
[20] = Plasma protein binding in Beagle dog at 0.5 to 5 ug/ml by equilibrium dialysis method; format: ADME, cell-free, Canis lupus familiaris; conditions: read-out: PPB (converted)
[21] = Terminal half life in Sprague-Dawley rat at 3 mg/kg, iv administered as single dose by LC/MS/MS analysis; format: ADME, organism-based; conditions: in vivo, read-out: beta t1/2 (converted)
[22] = Volume of distribution at steady state in cynomolgus monkey at 3 mg/kg, iv administered as single dose by LC/MS/MS analysis; format: ADME, organism-based, Macaca fascicularis; conditions: in vivo, read-out: Vdss
Canis familiaris [23] = assay: Blood clearance in Beagle dog at 3 mg/kg, iv administered as single dose by LC/MS/MS analysis relative to hepatic blood flow; format: ADME, organism-based, Canis lupus familiaris, Liver; conditions: in vivo
[24] = Intrinsic clearance in cynomolgus monkey liver microsomes assessed per gram of liver at 0.5 uM by LC/MS/MS analysis; format: ADME, Macaca fascicularis
Cynomolgus monkey [25] = assay: Oral bioavailability in cynomolgus monkey at 5 mg/kg administered as single dose by LC/MS/MS analysis; format: ADME, organism-based, Macaca fascicularis; conditions: in vivo
[26] = Cmax in Sprague-Dawley rat at 100 mg/kg, po bid by LC/MS/MS analysis; format: ADME, organism-based; parameters: dose 100 mg/kg, route oral; conditions: in vivo
Canis familiaris [27] = assay: Oral bioavailability in Beagle dog at 5 mg/kg administered as single dose by LC/MS/MS analysis; format: ADME, organism-based, Canis lupus familiaris; conditions: in vivo
[28] = Cmax in cynomolgus monkey at 5 mg/kg, po administered as single dose by LC/MS/MS analysis; format: ADME, organism-based, Macaca fascicularis; parameters: dose 5 mg/kg, route oral; conditions: in vivo
Liver microsome [29] = assay: Intrinsic clearance in Beagle dog liver microsomes assessed per gram of liver at 0.5 uM by LC/MS/MS analysis; format: ADME, Canis lupus familiaris
[30] = Plasma protein binding in Sprague-Dawley rat at 0.5 to 5 ug/ml by equilibrium dialysis method; format: ADME, cell-free; conditions: read-out: PPB (converted)
Streptococcus pneumoniae [31] = assay: Antibacterial activity against quinolone-resistant Streptococcus pneumoniae TPS3 in rat respiratory tract infection model assessed as decrease in bacterial burden in lung at 50 mg/kg po bid administered through gavage at 1, 7, 24,31 hrs post infection measured after 48 hrs; format: functional, organism-based
[32] = target: Voltage-gated inwardly rectifying potassium channel KCNH2 (Homo sapiens, UniProt Q12809); assay: Inhibition of human ERG
Canis familiaris [33] = assay: Renal clearance in Beagle dog at 3 mg/kg, iv administered as single dose by LC/MS/MS analysis relative to total clearance; format: ADME, organism-based, Canis lupus familiaris, Kidney; conditions: in vivo

Voltage-gated inwardly rectifying potassium channel KCNH2, sequence (Q12809 whole entry): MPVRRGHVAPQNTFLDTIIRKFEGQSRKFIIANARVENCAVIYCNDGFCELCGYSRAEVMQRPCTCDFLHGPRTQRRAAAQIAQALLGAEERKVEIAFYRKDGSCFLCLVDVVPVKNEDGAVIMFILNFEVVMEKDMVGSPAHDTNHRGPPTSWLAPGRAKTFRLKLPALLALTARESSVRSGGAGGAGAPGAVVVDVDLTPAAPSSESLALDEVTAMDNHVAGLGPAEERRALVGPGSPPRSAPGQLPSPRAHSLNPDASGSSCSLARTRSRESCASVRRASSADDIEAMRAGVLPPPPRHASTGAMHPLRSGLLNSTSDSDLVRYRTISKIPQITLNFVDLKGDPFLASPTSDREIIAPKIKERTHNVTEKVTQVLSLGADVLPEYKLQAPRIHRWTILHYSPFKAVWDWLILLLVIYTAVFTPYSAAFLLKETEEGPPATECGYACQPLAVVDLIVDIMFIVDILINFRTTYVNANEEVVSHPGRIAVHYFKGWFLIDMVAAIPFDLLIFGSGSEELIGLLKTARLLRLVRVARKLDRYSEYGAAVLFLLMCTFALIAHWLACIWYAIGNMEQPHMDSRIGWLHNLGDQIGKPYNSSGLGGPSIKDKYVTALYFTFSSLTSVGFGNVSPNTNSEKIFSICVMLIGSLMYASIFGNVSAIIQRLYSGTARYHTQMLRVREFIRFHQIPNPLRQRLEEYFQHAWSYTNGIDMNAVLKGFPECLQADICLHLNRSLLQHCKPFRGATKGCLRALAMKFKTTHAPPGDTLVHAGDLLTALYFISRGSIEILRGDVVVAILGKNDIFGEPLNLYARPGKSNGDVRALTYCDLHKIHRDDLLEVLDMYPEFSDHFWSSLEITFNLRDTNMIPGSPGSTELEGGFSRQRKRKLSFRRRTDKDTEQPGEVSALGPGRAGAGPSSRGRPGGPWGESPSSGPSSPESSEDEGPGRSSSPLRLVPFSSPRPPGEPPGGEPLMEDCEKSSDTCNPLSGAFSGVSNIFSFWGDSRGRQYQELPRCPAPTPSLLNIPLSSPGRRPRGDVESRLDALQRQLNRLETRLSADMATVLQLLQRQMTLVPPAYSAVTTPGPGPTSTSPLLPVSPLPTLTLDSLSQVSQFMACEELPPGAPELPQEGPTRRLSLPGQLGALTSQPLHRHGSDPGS

Cc1cc(F)c2c3c1ccc(=O)n3C[C@H]2CN1CCC(NCc2cc3c(nn2)OCCO3)CC1
MIC (Haemophilus influenzae): 2 µg/mL (≈ 4.3 µM) | MIC (Streptococcus pneumoniae [1]): 0.5 µg/mL (≈ 1.07 µM) | MIC (Staphylococcus aureus): 0.06 µg/mL (≈ 0.129 µM) | IC50 [2]: 0.099 µg/mL (≈ 0.213 µM)

O=C1CC(NCc2cc3c(nn2)OCCO3)CCN1C[C@@H]1Cn2c(=O)ccc3ccc(F)c1c32 (stereo partly specified)
MIC (Haemophilus influenzae): > 16 µg/mL | MIC (Streptococcus pneumoniae [1]): 16 µg/mL (≈ 34.4 µM) | MIC (Staphylococcus aureus): 16 µg/mL (≈ 34.4 µM) | IC50 [2]: 0.166 µg/mL (≈ 0.357 µM)

O=c1ccc2cccc3c2n1C[C@H]3CN1CCC(NCc2cc3c(nn2)OCCO3)CC1
MIC (Haemophilus influenzae): 2 µg/mL (≈ 4.61 µM) | MIC (Streptococcus pneumoniae [1]): 1 µg/mL (≈ 2.31 µM) | MIC (Staphylococcus aureus): 0.5 µg/mL (≈ 1.15 µM)

O=c1ccc2ccc(F)c3c2n1C[C@H]3CN1CCCC(CNCc2cc3c(nn2)OCCO3)C1 (stereo partly specified)
MIC (Haemophilus influenzae): > 16 µg/mL | MIC (Streptococcus pneumoniae [1]): 4 µg/mL (≈ 8.59 µM) | MIC (Staphylococcus aureus): 1 µg/mL (≈ 2.15 µM) | IC50 [2]: 0.666 µg/mL (≈ 1.43 µM)

N#Cc1ccc2ccc(=O)n3c2c1[C@H](CN1CCC(NCc2cc4c(nn2)OCCO4)CC1)C3
MIC (Haemophilus influenzae): 2 µg/mL (≈ 4.36 µM) | MIC (Streptococcus pneumoniae [1]): 0.5 µg/mL (≈ 1.09 µM) | MIC (Staphylococcus aureus): 0.25 µg/mL (≈ 0.545 µM) | IC50 [2]: 0.062 µg/mL (≈ 0.135 µM)

O=c1ccc2ccc(F)c3c2n1C[C@@H]3CN1CCC(NCc2cc3c(nn2)OCCO3)CC1
MIC (Haemophilus influenzae): > 16 µg/mL | MIC (Streptococcus pneumoniae [1]): 8 µg/mL (≈ 17.7 µM) | MIC (Staphylococcus aureus): 2 µg/mL (≈ 4.43 µM) | IC50 [2]: 0.121 µg/mL (≈ 0.268 µM)

Cc1ccc2ccc(=O)n3c2c1[C@H](CN1CCC(NCc2cc4c(nn2)OCCO4)CC1)C3
MIC (Haemophilus influenzae): 4 µg/mL (≈ 8.94 µM) | MIC (Streptococcus pneumoniae [1]): 1 µg/mL (≈ 2.23 µM) | MIC (Staphylococcus aureus): 0.25 µg/mL (≈ 0.559 µM) | IC50 [2]: 0.076 µg/mL (≈ 0.17 µM)

COc1ccc2ccc(=O)n3c2c1[C@H](CN1CCC(NCc2cc4c(nn2)OCCO4)CC1)C3
MIC (Haemophilus influenzae): 16 µg/mL (≈ 34.5 µM) | MIC (Streptococcus pneumoniae [1]): 8 µg/mL (≈ 17.3 µM) | MIC (Staphylococcus aureus): 2 µg/mL (≈ 4.31 µM) | IC50 [2]: 0.276 µg/mL (≈ 0.595 µM)

O=c1cnc2ccc(F)c3c2n1C[C@H]3CN1CCC(NCc2cc3c(nn2)OCCO3)CC1
MIC (Haemophilus influenzae): 0.5 µg/mL (≈ 1.1 µM) | MIC (Staphylococcus aureus): 0.06 µg/mL (≈ 0.133 µM) | IC50 [2]: 0.036 µg/mL (≈ 0.0796 µM)

O=c1ccc2ccc(F)c3c2n1C[C@H]3CN1CCC(NCc2cc3c(nn2)OCCO3)CC1 [GSK-945237]
Cmax [3]: 40 ng/mL | AUC (Canis familiaris [4]): 6050 ng·h/mL | Vd [5]: 7.2 L/kg | CL (Cynomolgus monkey [6]): 40% | AUC (Rattus norvegicus [7]): 30 ug.hr/ml/day | Vd [8]: 6.1 L/kg | MIC (Haemophilus influenzae): 1 µg/mL (≈ 2.21 µM) | CLint (Liver microsome [9]): 0.7 mL/min/g | MIC (Streptococcus pneumoniae [1]): 0.25 µg/mL (≈ 0.554 µM) | fraction unbound [10]: 0.576 | AUC (Cynomolgus monkey [11]): 1190 ng·h/mL | half-life [12]: 7.6 h | CL (Rattus norvegicus [13]): 100% | Cmax [14]: 1070 ng/mL | AUC (Rattus norvegicus [15]): 290 ng·h/mL | CL (Cynomolgus monkey [16]): 45% | F (Rattus norvegicus [17]): 22% | Activity (Streptococcus pneumoniae [18]): Active | half-life [19]: 8.8 h | fraction unbound [20]: 0.53 | half-life [21]: 1.9 h | Vd [22]: 8.2 L/kg | CL (Canis familiaris [23]): 40% | CLint [24]: 1.5 mL/min/g | MIC (Staphylococcus aureus): 0.06 µg/mL (≈ 0.133 µM) | F (Cynomolgus monkey [25]): 34% | Cmax [26]: 3000 ng/mL | F (Canis familiaris [27]): 100% | Cmax [28]: 210 ng/mL | CLint (Liver microsome [29]): < 0.6 mL/min/g | fraction unbound [30]: 0.367 | Activity (Streptococcus pneumoniae [31]): Active | IC50 [32]: 238 µM | IC50 [2]: 0.034 µg/mL (≈ 0.0753 µM) | CL (Canis familiaris [33]): 74%

COc1c(N2C[C@@H]3CCCN[C@@H]3C2)c(F)cc2c(=O)c(C(=O)O)cn(C3CC3)c12 [MOXIFLOXACIN]
MIC (Streptococcus pneumoniae [1]): 4 µg/mL (≈ 9.96 µM) | Activity (Streptococcus pneumoniae [18]): inactive
